10 molecules from PubChem BioAssay (NCI) can be followed below.

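Briefly, cells in 96-well plates were exposed to five compound concentrations for 48 h, and endpoints were estimated by linear interpolation. TGI marks complete inhibition of growth.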

Some test systems named below: SNB-19 CNS; OVCAR-8 ovarian; SK-MEL-5 melanoma; SF-268 CNS; OVCAR-4 ovarian; CAKI-1 renal; SK-MEL-28 melanoma; PC-3 prostate; SNB-75 CNS; COLO 205 colon; NCI/ADR-RES ovarian; MALME-3M melanoma; HOP-62 NSCLC; T-47D breast; HOP-92 NSCLC; SR leukemia.
What all share (assay): NCI-60 cell line screen, 48 h

`CCOC(=O)C(CCSC)(CCSC)C(=O)OCC`: the TGI with SNB-19 CNS, with OVCAR-8 ovarian, with SK-MEL-5 melanoma, in the assay with SF-268 CNS, in the assay on OVCAR-4 ovarian and with CAKI-1 renal was > 100 µM in each case. In addition, the TGI with SK-MEL-28 melanoma, with PC-3 prostate, in the assay with SNB-75 CNS, with COLO 205 colon, in the assay with NCI/ADR-RES ovarian and in the assay on MALME-3M melanoma was > 100 µM in each case. Further, the TGI in the assay on HOP-62 NSCLC and with T-47D breast was > 100 µM in each case.
With `[O-][N+]1=C(c2ccccc2)/C(=C2/C(c3ccccc3)=[N+]([O-])c3ccccc32)Cc2ccccc21`, the TGI with SNB-19 CNS is 44.3 µM; in the assay with OVCAR-8 ovarian, 35.6 µM; in the assay on HOP-92 NSCLC, 32.9 µM; in the assay on SK-MEL-5 melanoma it was 35.4 µM; in the assay on OVCAR-4 ovarian, 38.9 µM; in the assay on CAKI-1 renal, 47.4 µM. For the same molecule, the TGI in the assay with SK-MEL-28 melanoma was 46.2 µM; in the assay on PC-3 prostate, 34.9 µM; in the assay on SNB-75 CNS it was 47.1 µM; in the assay with COLO 205 colon, 34.7 µM; with NCI/ADR-RES ovarian, 34.4 µM; with MALME-3M melanoma it was 40.8 µM. The TGI with HOP-62 NSCLC was > 100 µM; with T-47D breast, 45.8 µM.
As to `O=C(OCC1CC(C2(O)CCCCC2)C(=O)O1)c1ccccc1` (stereo not given), the TGI with SNB-19 CNS, in the assay with OVCAR-8 ovarian, in the assay with HOP-92 NSCLC, in the assay with SK-MEL-5 melanoma, in the assay on SR leukemia and in the assay on SF-268 CNS was > 100 µM in each case. Further, the TGI in the assay on OVCAR-4 ovarian, in the assay with CAKI-1 renal, in the assay on SK-MEL-28 melanoma, with PC-3 prostate, in the assay on SNB-75 CNS and in the assay on COLO 205 colon was > 100 µM in each case. Moreover, the TGI with NCI/ADR-RES ovarian, with MALME-3M melanoma and with HOP-62 NSCLC was > 100 µM in each case.
With `CC1=NC(=O)CNN1C1=NNC2(C(=O)N1)c1ccccc1-c1ccccc12`, the TGI with SNB-19 CNS, in the assay with OVCAR-8 ovarian, in the assay with HOP-92 NSCLC, in the assay with SK-MEL-5 melanoma, with SR leukemia and with SF-268 CNS was > 100 µM each time. For the same molecule, the TGI with OVCAR-4 ovarian, with CAKI-1 renal, in the assay with SK-MEL-28 melanoma, in the assay on PC-3 prostate, in the assay with SNB-75 CNS and in the assay with COLO 205 colon was > 100 µM throughout. Also, the TGI in the assay on NCI/ADR-RES ovarian, with MALME-3M melanoma and with HOP-62 NSCLC was > 100 µM in each case.
As for `CCOC(=O)NC(C(F)(F)F)(C(F)(F)F)P(=O)(OCC)OCC`, the TGI in the assay with SNB-19 CNS, in the assay with OVCAR-8 ovarian, with HOP-92 NSCLC, in the assay with SF-268 CNS, with OVCAR-4 ovarian and in the assay with SK-MEL-28 melanoma was > 100 µM throughout. Besides, the TGI with PC-3 prostate, in the assay with SNB-75 CNS, in the assay with COLO 205 colon, in the assay with NCI/ADR-RES ovarian, in the assay on MALME-3M melanoma and in the assay with HOP-62 NSCLC was > 100 µM throughout. Also, in the assay on T-47D breast, the TGI is > 100 µM.
Turning to `CN(C)C1(N(C)C)Oc2c(c(=O)n(C)c(=O)n2C)C(c2ccc(F)cc2)C1(F)F` (stereo not given), the TGI in the assay with SNB-19 CNS, with HOP-92 NSCLC, with SK-MEL-5 melanoma, with SF-268 CNS, with OVCAR-4 ovarian and with CAKI-1 renal was > 100 µM each time. In addition, the TGI in the assay on SK-MEL-28 melanoma, in the assay on PC-3 prostate, in the assay with SNB-75 CNS, in the assay with COLO 205 colon, with NCI/ADR-RES ovarian and in the assay with HOP-62 NSCLC was > 100 µM in each case. The TGI with T-47D breast is > 100 µM.
For the molecule `CCCC1(N2C(=O)c3ccc4c5c(ccc(c35)C2=O)N(C2(CCC)CCCCC2)C4=O)CCCCC1`, the TGI in the assay on SNB-19 CNS, in the assay on OVCAR-8 ovarian, with HOP-92 NSCLC, in the assay on SK-MEL-5 melanoma, in the assay on SF-268 CNS and in the assay with OVCAR-4 ovarian was > 100 µM each time. The TGI in the assay on CAKI-1 renal, in the assay with SK-MEL-28 melanoma, in the assay on PC-3 prostate, in the assay with COLO 205 colon, in the assay with NCI/ADR-RES ovarian and in the assay with MALME-3M melanoma was > 100 µM throughout. In addition, the TGI in the assay with HOP-62 NSCLC and with T-47D breast was > 100 µM throughout.
For `O=C1Nc2n[nH]c(=S)n2NC12c1ccccc1-c1ccccc12`, the TGI in the assay with SNB-19 CNS, in the assay with OVCAR-8 ovarian, with HOP-92 NSCLC, with SK-MEL-5 melanoma, in the assay on SR leukemia and in the assay with SF-268 CNS was > 100 µM in each case. The TGI in the assay with OVCAR-4 ovarian is 39.1 µM; in the assay on CAKI-1 renal, > 100 µM; with SK-MEL-28 melanoma, > 100 µM; in the assay with PC-3 prostate it was > 100 µM; in the assay with SNB-75 CNS, > 100 µM; with COLO 205 colon, > 100 µM. Besides, the TGI in the assay on NCI/ADR-RES ovarian, with MALME-3M melanoma and with HOP-62 NSCLC was > 100 µM in each case.
For `N#Cc1c2c(c(Nc3cccc(C(F)(F)F)c3)n3c1nc1ccccc13)CCCC2`, the TGI in the assay with OVCAR-8 ovarian is 34.1 µM; in the assay on HOP-92 NSCLC, 22.5 µM; in the assay with SK-MEL-5 melanoma, > 100 µM; in the assay with SF-268 CNS, 43.1 µM; in the assay on OVCAR-4 ovarian, > 100 µM; in the assay on CAKI-1 renal it was 82.4 µM. Besides, the TGI in the assay with SK-MEL-28 melanoma is 47.5 µM; with SNB-75 CNS it was 57.3 µM; in the assay with COLO 205 colon it was > 100 µM; in the assay on NCI/ADR-RES ovarian, 51.8 µM; with MALME-3M melanoma, 85.7 µM; in the assay on HOP-62 NSCLC it was 36.3 µM. The TGI in the assay with T-47D breast is > 100 µM.
In the case of `COc1cccc(C2c3cc4c(cc3OC(NNC(N)=O)C2C)OCO4)c1OC` (stereo not given), the TGI with SNB-19 CNS was > 100 µM; with OVCAR-8 ovarian, 17.9 µM; in the assay with HOP-92 NSCLC it was 57.8 µM; with SK-MEL-5 melanoma, 43.9 µM; in the assay with SR leukemia it was 18.8 µM; in the assay with SF-268 CNS, > 100 µM. The TGI was found to be 83.4 µM with CAKI-1 renal; 72.7 µM in the assay with SK-MEL-28 melanoma; 55 µM with PC-3 prostate; 59.3 µM with SNB-75 CNS; 27.8 µM in the assay on COLO 205 colon; 73.8 µM with MALME-3M melanoma. The TGI was 57.5 µM in the assay with HOP-62 NSCLC and > 100 µM with T-47D breast.
